# System: A2780 cells
# Test: Intracellular carbonyl derivatives (DCCH), A2780
# Assay type: cell-based, human
# Settings: 24 h
# Protocol: and the cells were incubated in the dark chamber filled with CO2 (5%) at 37 °C for 20 min.
# Next, the cells were detached from the culture dish using trypsin/EDTA (0.025%/0.01%, v/v, 50 µL). The cells were re-suspended in RPMI 1640 medium containing 5% FBS, 1% L-glutamine and 1% penicillin/streptomycin (100 µL). Finally, the fluorescence of live cells (λex = 488 nm, λem = 578 nm) in the suspensions was determined by using flow cytometry […]
# Figure S60. Representative flow cytometric histograms used for setting up Figures 4B […]
# Monitoring intracellular carbonyl derivatives
# A2780 cells were seeded into 24 well culture plates at the same cell concentration and in the same medium as applied for the assay for monitoring tROS described above. The next day, stock solutions of prodrugs of different concentrations (5 μL of stock solutions in DMSO, final concentration of prodrugs 5 and 10 μM; control 7 2 and 5 µM) or carrier only (DMSO, 5 µL, final concentration 1 %, v/v) were added to the wells and incubated in the chamber filled with CO2 (5%). After 24 h, the cells were washed twice with DPBS buffer and the medium was replaced with HBSS (Hanks' Balanced Salt solution, 500 μL). […]
# Finally, the fluorescence of live cells (λex = 488 nm, λem = 530 nm) in the suspensions was determined by using flow cytometry (Figure 4C). […]
structure (smiles),measurement,value
CC1(C)OB(c2ccc(COC(=O)N(Cc3cn(Cc4ccc(Cn5cc(Cc6ccccc6)nn5)cc4)nn3)[c-]3cccc3)cc2)OC1(C)C.[Fe+2].c1cc[cH-]c1 [2c],formation of intracellular carbonyl derivatives,did not induce formation of significant amounts of carbonyl derivatives
